According to patent US6653258B1 (priority 1987, dated 2003):
Read-outs that look alike come from different tables or passages of the source. Marks after values point to notes of the source that are not given here.

How the values were obtained:
[1] = tested on: Erysiphe graminis; assay: Foliar fungal disease test on Erysiphe graminis, plants inoculated 24 hours before treatment (Table V); assay type: in vivo; set-up: key: 4: no disease; 3: trace −5% of disease on untreated plants; 6-25% of disease on untreated plants; 1: 26-59% of disease on untreated plants; 60-100% of disease on untreated plants
[2] = tested on: foliar fungal diseases of plants; assay type: in vivo; set-up: key to disease control grading, […] (VINE): 4: no disease; 3: trace −5% of disease on untreated plants; key to disease control grading, PUCCINIA RECONDITA (WHEAT) / disease control grading, VENTURIA INAEQUALIS (APPLE) / disease control grading, CERCOSPORA ARACHIDICOLA (PEANUT) / disease control grading, PH[…] (TOMATO) / disease control grading, P[…] (RICE): 4: no disease; 3: trace −5% of disease on untreated plants; 6-25% of disease on untreated plants; 1: 26-59% of disease on untreated plants; 60-100% of disease on untreated plants; settings: for disease control grading, CERCOSPORA ARACHIDICOLA (PEANUT): Cercospora arachidicola on peanut; for disease control grading, P[…] (RICE): P[…] on rice; for disease control grading, PH[…] (TOMATO): Ph[…] on tomato; for disease control grading, PUCCINIA RECONDITA (WHEAT): Puccinia recondita on wheat; for disease control grading, VENTURIA INAEQUALIS (APPLE): Venturia inaequalis on apple; for disease control grading, […] (VINE): […] on vine
[3] = plants inoculated 24 hours before treatment
[4] = applied to soil (roots) and foliage one or two days before inoculation

SMILES	disease control grading, ERYSIPHE GRAMINIS (BARLEY) [1, 3]	disease control grading, CERCOSPORA ARACHIDICOLA (PEANUT) [2, 4]	disease control grading, P[…] (RICE) [2, 4]	disease control grading, PH[…] (TOMATO) [2, 4]	disease control grading, PUCCINIA RECONDITA (WHEAT) [2, 4]	disease control grading, VENTURIA INAEQUALIS (APPLE) [2, 4]	disease control grading, […] (VINE) [2, 4]	disease control grading, ERYSIPHE GRAMINIS (BARLEY) ([1]; 25 ppm foliar spray only)	disease control grading, CERCOSPORA ARACHIDICOLA (PEANUT) ([2]; 25 ppm foliar spray only)	disease control grading, P[…] (RICE) ([2]; 25 ppm foliar spray only)	disease control grading, PH[…] (TOMATO) ([2]; 25 ppm foliar spray only)	disease control grading, PUCCINIA RECONDITA (WHEAT) ([2]; 25 ppm foliar spray only)	disease control grading, VENTURIA INAEQUALIS (APPLE) ([2]; 25 ppm foliar spray only)	disease control grading, […] (VINE) ([2]; 25 ppm foliar spray only)
CO/C=C(/C(=O)OC)c1ccccc1CSc1ccccc1 [1 (Table II)]	2 (6-25% of disease on untreated plants)	0 (60-100% of disease on untreated plants)	3 (trace −5% of disease on untreated plants)	4	4	4	4							
COC=C(C(=O)OC)c1ccccc1C(C)Sc1ccccc1 (stereo not shown) [2 (Table II)]	4	0 (60-100% of disease on untreated plants)	4	4	4	4	4							
CCCN(Cc1ccccc1/C(=C\OC)C(=O)OC)c1ccccc1 [4 (Table III)]								0* (60-100% of disease on untreated plants)	0* (60-100% of disease on untreated plants)	0* (60-100% of disease on untreated plants)	0* (60-100% of disease on untreated plants)	0* (60-100% of disease on untreated plants)	3* (trace −5% of disease on untreated plants)	1* (26-59% of disease on untreated plants)
CO/C=C(/C(=O)OC)c1ccccc1COc1ccccc1Br [24 (Table I)]	4	4	4	4	4	4	4							
CO/C=C(/C(=O)OC)c1ccccc1COc1cccc(I)c1 [25 (Table I)]	4	4	2 (6-25% of disease on untreated plants)	3 (trace −5% of disease on untreated plants)	4	4	4							
CCc1ccccc1OCc1ccccc1/C(=C\OC)C(=O)OC [27 (Table I)]	4	4	1 (26-59% of disease on untreated plants)	4	4	4	0 (60-100% of disease on untreated plants)							
CO/C=C(/C(=O)OC)c1ccccc1COc1cccc(C(C)(C)C)c1 [29 (Table I)]	2 (6-25% of disease on untreated plants)	4	4	4	4	4	4							
CO/C=C(/C(=O)OC)c1ccccc1COc1ccccc1[N+](=O)[O-] [33 (Table I)]	2 (6-25% of disease on untreated plants)	4	4	3 (trace −5% of disease on untreated plants)	4	4	4							
CO/C=C(/C(=O)OC)c1ccccc1COc1cccc(N)c1 [34 (Table I)]	0 (60-100% of disease on untreated plants)	0 (60-100% of disease on untreated plants)	0 (60-100% of disease on untreated plants)	4	3 (trace −5% of disease on untreated plants)	3 (trace −5% of disease on untreated plants)	4							
CO/C=C(/C(=O)OC)c1ccccc1COc1ccc(C#N)cc1 [38 (Table I)]	4	4	0 (60-100% of disease on untreated plants)	4	4	4	4							
